Laboratory results reported in the supplement of paper PMC10949913.
± gives the standard deviation of the averaged measurements.

Tests used:
[1] = tested on: CU-ACC1; experiment: ExcessHSA synergy score with TAK-243; higher = less synergy (negative = synergistic); details: combined with: TAK-243 (MLN-7243) matrix, 9-point 1:2 dilution
Description: (§1)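 Each drug was tested at 9 points with 1:2 dilution; viability was read by CellTiter-Glo as in the single-agent screen. Synergy is scored as ExcessHSA (sum of excess over highest single agent; negative = synergy) and the Beta interaction parameter (<1 synergy).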

[2] = tested on: NCI-H295R; experiment: as above; details: combined with: TAK-243 (MLN-7243) matrix, 9-point 1:2 dilution
Description: as §1

Row | SMILES | ExcessHSA synergy score with TAK-243 [1] | ExcessHSA synergy score with TAK-243 [2]
1 | Nc1ccn([C@@H]2O[C@H](CO)[C@@H](O)C2(F)F)c(=O)n1 [Gemcitabine] | -457 | 236
2 | CCc1cc(C(N)=O)ccc1-n1nc(C(C)C)c2c(-n3cnc(-c4cnn(C)c4)c3)ccnc21 [Pimitespib] | 959 | 586
3 | CO/C1=C\C(C)=C\[C@@H](C)[C@@H](O)[C@@H](C)C/C(C)=C/C=C/[C@H](OC)[C@@H]([C@@H](C)[C@@H](O)[C@H](C)[C@@]2(O)C[C@@H](O)[C@H](C)[C@@H](C(C)C)O2)OC1=O [Bafilomycin A1] | 14.5 | -139
4 | O=C(O)C1(C(=O)O)CCC1.[NH2-].[NH2-].[Pt+2] [Carboplatin] | -188 | -21.5
5 | NC(=O)/C(=C/n1cnc(-c2cc(C(F)(F)F)cc(C(F)(F)F)c2)n1)c1cncnc1 [Eltanexor] | -817 | -429
6 | C=CC(=O)N1CC/C(=C\c2ccc(F)c([N+](=O)[O-])c2)C(=O)/C(=C/c2ccc(F)c([N+](=O)[O-])c2)C1 [VLX-1570] | 79.8 | -147
7 | CO[C@H]1C(=O)[C@]2(C)[C@@H](OC)C[C@H]3OC[C@@]3(OC(C)=O)[C@H]2[C@H](OC(=O)c2ccccc2)[C@]2(O)C[C@H](OC(=O)[C@H](O)[C@@H](NC(=O)OC(C)(C)C)c3ccccc3)C(C)=C1C2(C)C [Cabazitaxel] | 396 | -364
8 | CN(C)C/C=C/C(=O)Nc1ccc(C(=O)Nc2cccc(Nc3ncc(Cl)c(-c4c[nH]c5ccccc45)n3)c2)cc1 [THZ1] | -55.8 | -128
9 | N[C@H]1CC[C@H](N[C@@H]2C[C@H]2c2ccccc2)CC1 [ORY-1001] | -384 | -493
10 | CC(C)[C@@H](CS(=O)(=O)C(C)C)N1C(=O)[C@@](C)(CC(=O)O)C[C@H](c2cccc(Cl)c2)[C@H]1c1ccc(Cl)cc1 [AMG 232] | -130 | 236
11 | CNC(=O)Nc1ccc2c(c1)CC[C@@]21OC(=O)N(CC(=O)N(Cc2ccc(F)cc2)[C@@H](C)C(F)(F)F)C1=O [A-485] | 305 | 334
12 | O=C(c1cc(Cc2n[nH]c(=O)c3ccccc23)ccc1F)N1CCN(C(=O)C2CC2)CC1 [Olaparib] | 468 | 859
13 | O=c1sn(-c2cccc3ccccc23)c(=O)n1Cc1ccccc1 [Tideglusib] | -108 | -74.2
14 | Cc1cccc(CC(=O)N2CCc3c2ccc(-c2cn(C)c4ncnc(N)c24)c3F)n1 | -151 | 173
15 | CCS(=O)(=O)c1cc2cc(C[C@](O)(CC(C)(C)c3ccc(F)cc3C(N)=O)C(F)(F)F)[nH]c2cn1 | 653 | 885
16 | O=C(c1cc(-c2cc3c(cc2C(=O)N2Cc4ccccc4CC2CN2CCOCC2)OCO3)n2c1CCCC2)N(c1ccccc1)c1ccc(O)cc1 (configuration not stated) | -937 | -903
17 | COC1CCC(n2c([C@@H]3CCCC(=O)N3c3ccc(F)c(F)c3)nc3cc(-c4c(C)noc4C)ccc32)CC1 (some centres not stated) [CBP/p300-IN-4] | -96.9 | -244
18 | O=C(O)CNC(=O)c1ncc(-c2cccc(Cl)c2)cc1O | -199 | 289
19 | C=CCNc1nc(N)c(C(=O)c2ccc(F)s2)s1 [TT-10] | 584 | 922
20 | C=CCn1c(=O)c2cnc(Nc3ccc(N4CCN(C)CC4)cc3)nc2n1-c1cccc(C(C)(C)O)n1 [MK-1775] | 295 | 169
21 | Nc1nc(OCc2ccccc2)c2nc[nH]c2n1 [O6-Benzylguanine] | -248 | 45.7
22 | Cc1cnc(CNC(=O)c2c(=O)c3ccc(N4CCCN(C)CC4)nc3n3c2sc2ccccc23)cn1 [CX-5461] | 210 | 895
23 | C[C@H]1N=C(N(C)C)N=C(N)N1 [Imeglimin] | -159 | 50.3
24 | O=C(N[C@@H](Cc1coc2ccccc12)B(O)O)[C@@H]1C[C@H]2CC[C@@H]1O2 [LMP7-IN-1] | -335 | -55.7
25 | COc1cc2c(cc1-c1c(C)noc1C)cc(C)c(=O)n2Cc1ccccn1 [ODM-207] | 182 | -3.62
26 | CC(C)NC[C@@H](C(=O)N1CCN(c2ncnc3c2[C@H](C)C[C@H]3O)CC1)c1ccc(Cl)cc1 [Ipatasertib] | 85.6 | -60.3

Row | SMILES | ExcessHSA synergy score with TAK-243 [1] | ExcessHSA synergy score with TAK-243 [2]
27 | Cc1nc2ccc(F)cc2n1-c1nc(N)c(F)c(Nc2ccc(C(F)(F)F)cc2)n1 [PTC596] | -119 | -3.1
28 | CNC(=O)c1cccc(-c2ccc3c(N4CCOC[C@@H]4C)nc(N4CCOC[C@@H]4C)nc3n2)c1 [Vistusertib] | -211 ± 410 | -549 ± 350
29 | Cc1nc(=O)c2cc(CN(C)c3ccc(C(=O)N[C@@H](CCC(=O)O)C(=O)O)s3)ccc2[nH]1 [Raltitrexed] | -398 | -54.1
30 | CCOC(=O)c1ccc(C#Cc2ccc3c(c2)C(C)(C)CCS3)nc1 [Tazarotene] | 230 | 136
31 | C[C@H]1CCN1c1nc(N2C[C@@H]3[C@@H](CC(=O)O)[C@@H]3C2)cc(C(F)(F)F)n1 [Ketohexokinase inhibitor 1] | -31.2 | 49.1
32 | CC(C)c1cc(-c2n[nH]c(=O)n2-c2ccc3c(ccn3C)c2)c(O)cc1O [Ganetespib (STA-9090)] | 400 | -59.8
33 | Cc1ccc(NC(=O)NCc2ccc3c(c2)CN(C2CCC(=O)NC2=O)C3=O)cc1Cl (configuration not stated) [CC-885] | 356 | 370
34 | CO[C@H]1/C=C/C[C@H](C)[C@@H](C)S(=O)(=O)NC(=O)c2ccc3c(c2)N(C[C@@H]2CC[C@H]21)C[C@@]1(CCCc2cc(Cl)ccc21)CO3 [AMG-176] | -10.7 | -202
35 | C[C@@H]1OCC2(CCN(c3cnc(Sc4ccnc(N)c4Cl)c(N)n3)CC2)[C@@H]1N [TNO-155] | 176 | 322
36 | Cc1[nH]c2ccccc2c1CCNCc1ccc(/C=C/C(=O)NO)cc1 [Panobinostat] | 181 | -23.3
37 | CC1(C)CCC(c2ccc(Cl)cc2)=C(CN2CCN(c3ccc(C(=O)NS(=O)(=O)c4ccc(N[C@H](CCN5CCOCC5)CSc5ccccc5)c(S(=O)(=O)C(F)(F)F)c4)cc3)CC2)C1 [Navitoclax] | -563 | -505
38 | O=C(NCc1cc(F)cc(F)c1)[C@@]1(O)CCN(c2ccc3[nH]ccc3c2)C1=O [M8891] | 34 | 171
39 | Cc1cc(C(=O)CN2CCCCC2)c(C)n1-c1ccc(Cl)cc1 [IU1-47] | -58.7 | 125
40 | CO[C@H]1CN(C)C(=O)c2cc(NC(=O)NC(C)C)ccc2OC[C@H](C)N(Cc2ccc(-c3ccccn3)cc2)C[C@@H]1C [BD98] | -213 | -760
41 | COc1ccc(C(=O)N2CCN(c3ccc4c(c3)CCC(=O)N4)CC2)cc1OC [Vesnarinone] | 628 | 706
42 | CNCc1ccc(-c2cc(-c3nc(-c4ccc(S(=O)(=O)C(C)C)cc4)cnc3N)on2)cc1 [Berzosertib] | -219 | 144
43 | O=C(O)c1ccc(CN2CCC(CN[C@@H]3C[C@H]3c3ccccc3)CC2)cc1 | -27.5 | 23.7
44 | CS(=O)(=O)c1ccc(Oc2cc(F)cc(C#N)c2)c2c1[C@H](O)[C@H](F)[C@@H]2F [PT-2977] | 217 | 801
45 | NC(=O)c1c(NC(=O)COCc2cc(-c3cccs3)on2)sc2c1CCCC2 | 37.9 | 122
46 | O=C(c1ccc(F)c(F)c1Nc1ccc(I)cc1F)N1CC(O)([C@@H]2CCCCN2)C1 [Cobimetinib] | 450 | 819
47 | CCN(C(=O)c1cc(F)ccc1Oc1cncnc1N1CC2(CCN(C[C@H]3CC[C@H](NS(=O)(=O)CC)CC3)CC2)C1)C(C)C [SNDX-5613] | -82.8 | 50
48 | CSC[C@H]1CN(Cc2c[nH]c3c(N)ncnc23)C[C@@H]1O [MT-DADMe-ImmA] | -323 | 422
49 | Cc1cc(Oc2ccc3nc(COc4ccc(CC5SC(=O)NC5=O)cc4)n(C)c3c2)cc(C)c1N (configuration not stated) [Efatutazone] | -278 | -69.9
50 | NCCCC[C@H](NC(=O)[C@@H](NC(=O)[C@H](Cc1c[nH]c2ccccc12)NC(=O)[C@H](CCCCN)NC(=O)[C@H](CCCCN)NC(=O)[C@H](Cc1c[nH]c2ccccc12)NC(=O)[C@H](Cc1c[nH]c2ccccc12)NC(=O)[C@H](CCCCN)NC(=O)[C@@H](N)CCCCN)C(c1ccccc1)c1ccccc1)C(N)=O [Oncopore] | 401 | 391
51 | CC1(C)CC[C@]2(NC(=O)C(C)(F)F)CC[C@]3(C)[C@H](C(=O)C=C4[C@@]5(C)C=C(C#N)C(=O)C(C)(C)[C@@H]5CC[C@]43C)[C@@H]2C1 [Omaveloxolone (RTA-408)] | 367 | 323
